“Also recorded” adds a separate entry of the source. Like-named read-outs stand apart in the source and are kept apart here.
Experiments:
[1] = cited from earlier work
group of 6 to 8 testers = test: Tasting of trans-pellitorin in 11 wt. % sugar solution by a group of testers; assay type: in vivo; details: for sensory impression on tasting: approximately 5 ml swallowed
Method: The trans-pellitorin was dissolved in ethanol and the ethanolic solution was then diluted with an 11 wt. % sugar solution (final concentration: c). For tasting, respectively approximately 5 ml of the sugar solution was respectively swallowed.

SMILES	sensory impression ([1]; Lebensm.-Wiss. U.-Technol. 1992, 25, 417-421)	sensory impression on tasting (group of 6 to 8 testers; c=10 ppm in 11 wt. % sugar solution)	sensory impression on tasting (group of 6 to 8 testers; c=20 ppm in 11 wt. % sugar solution)	concentration in the final product at which a saliva inducing effect only is observed, no additional sensory impressions (group of 6 to 8 testers; final product, e.g. finished preparation)	sensory impression in taste research (group of 6 to 8 testers; taste research, general statement)	sensory impression ([1]; J. Agric. Food Chem. 1981, 29, 115, Fitoterapia 2001, 72, 197)	sensory impression on tasting in the pure state ([1]; pure state, J. Am. Chem. Soc. 1953, 75, 2584-2586)
C/C=C/C=C\CC/C=C/C(=O)NCC(C)C [spilanthol, 2E,6Z,8E-decatrienoic acid-N-isobutylamide, reference compound]	strongly salivation inducing and tingly or prickly; also recorded: spicy-hot and strongly numbing as well as an astringent	–	–	–	–	–	–
CCCCC/C=C/C=C/C(=O)NCC(C)C [trans-pellitorin, 2E,4E-decadienoic acid-N-isobutylamide]	–	salivation inducing, slightly prickly, not spicy hot	salivation inducing, slightly numbing, slightly fatty, weakly fruity, prickly, persistent, not spicy hot	below 20 ppm	pleasant saliva-inducing and slightly prickly sensory impression, with relatively prolonged effect	primarily numbing	besides an elevated saliva flow, a strong burning effect on the tongue

— patent US8063107B2, “Use of trans-pellitorin as flavor substance” (Symrise AG, priority 2002, dated 2011)
